From PubChem BioAssay AID258 (DTP/NCI, 2004) come the findings set out here.

Values joined by “and” are separate entries in the source; they are usually repeats but may differ in a detail not shown here. Equal values may be shown once. Toxic doses and inconclusive results are not listed.

The subject of this experiment is CD2F1 mice, L1210 leukemia sc, survival T/C. Put plainly: NCI In Vivo Anticancer Drug Screen. Data for tumor model L1210 Leukemia (subcutaneous) in CD2F1 (CDF1) mice. The conditions noted are these: endpoint: median survival time, higher = longer survival. In a few lines:
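Antitumor activity is scored in tumor-bearing mice by comparing survival or tumor size of treated animals against vehicle-treated controls, reported as T/C.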

The mark [1] stands for this setting: dose: 4.0 mg/kg/injection, schedule: Q01DX009 (ip), vehicle: Klucel (hydroxypropylcellulose) (HPC).
Where [2] appears, read: dose: 8.0 mg/kg/injection, schedule: Q01DX009 (ip), vehicle: Klucel (hydroxypropylcellulose) (HPC).
The mark [3] stands for this setting: dose: 16.0 mg/kg/injection, schedule: Q01DX009 (ip), vehicle: Klucel (hydroxypropylcellulose) (HPC).

Turning to `O=C1c2ccccc2C(=O)c2c(NCCNCCO)ccc(NCCNCCO)c21`, the T/C was 97 % of control (dose: 0.5 mg/kg/injection, schedule: Q01DX009 (ip), vehicle: saline with Tween-80); 97 % of control (dose: 0.5 mg/kg/injection, schedule: Q01DX009 (ip), vehicle: saline); 98 % of control (dose: 1.0 mg/kg/injection, schedule: Q01DX009 (ip), vehicle: saline with Tween-80); 102 % of control and 106 % of control and 86 % of control (dose: 1.0 mg/kg/injection, schedule: Q01DX009 (ip), vehicle: saline); 101 % of control (dose: 2.0 mg/kg/injection, schedule: Q01DX009 (ip), vehicle: saline with Tween-80); 102 % of control and 108 % of control (dose: 2.0 mg/kg/injection, schedule: Q01DX009 (ip), vehicle: saline). Moreover, the T/C under setting [1] was 98 % of control; the T/C (dose: 4.0 mg/kg/injection, schedule: Q01DX009 (ip), vehicle: saline) is 105 % of control and 97 % of control; the T/C (dose: 4.0 mg/kg/injection, schedule: Q01DX009 (ip), vehicle: water) is 101 % of control; the T/C (dose: 4.0 mg/kg/injection, schedule: Q01DX009 (oral), vehicle: saline) was 94 % of control; the T/C (dose: 4.0 mg/kg/injection, schedule: Q01DX009 (sc), vehicle: Klucel (hydroxypropylcellulose) (HPC)) is 114 % of control and 124 % of control; the T/C (dose: 8.0 mg/kg/injection, schedule: Q01DX005 (oral), vehicle: Klucel (hydroxypropylcellulose) (HPC)) is 99 % of control. Also, the T/C by setting is: (dose: 8.0 mg/kg/injection, schedule: Q01DX005 (oral), vehicle: water) 96 % of control; under setting [2], 122 % of control and 112 % of control; (dose: 8.0 mg/kg/injection, schedule: Q01DX009 (ip), vehicle: saline) 93 % of control; (dose: 8.0 mg/kg/injection, schedule: Q01DX009 (ip), vehicle: water) 104 % of control; (dose: 8.0 mg/kg/injection, schedule: Q01DX009 (oral), vehicle: saline) 96 % of control; (dose: 8.0 mg/kg/injection, schedule: Q01DX009 (sc), vehicle: water) 156 % of control. Further, the T/C reads like this: (dose: 16.0 mg/kg/injection, schedule: Q01DX005 (oral), vehicle: Klucel (hydroxypropylcellulose) (HPC)) 106 % of control; (dose: 16.0 mg/kg/injection, schedule: Q01DX005 (oral), vehicle: water) 96 % of control; under setting [3], 108 % of control; (dose: 16.0 mg/kg/injection, schedule: Q01DX009 (ip), vehicle: water) 102 % of control; (dose: 16.0 mg/kg/injection, schedule: Q01DX009 (oral), vehicle: saline) 96 % of control; (dose: 16.0 mg/kg/injection, schedule: Q01DX009 (sc), vehicle: Klucel (hydroxypropylcellulose) (HPC)) 177 % of control and 122 % of control and 243 % of control. Further, the T/C is 578 % of control (dose: 16.0 mg/kg/injection, schedule: Q01DX009 (sc), vehicle: water); 103 % of control (dose: 32.0 mg/kg/injection, schedule: Q01DX005 (oral), vehicle: Klucel (hydroxypropylcellulose) (HPC)); 99 % of control (dose: 32.0 mg/kg/injection, schedule: Q01DX005 (oral), vehicle: water); 120 % of control and 119 % of control (dose: 32.0 mg/kg/injection, schedule: Q01DX009 (ip), vehicle: Klucel (hydroxypropylcellulose) (HPC)); 104 % of control (dose: 32.0 mg/kg/injection, schedule: Q01DX009 (ip), vehicle: saline); 111 % of control (dose: 32.0 mg/kg/injection, schedule: Q01DX009 (ip), vehicle: water). The T/C by setting is: (dose: 32.0 mg/kg/injection, schedule: Q01DX009 (oral), vehicle: saline) 94 % of control; (dose: 32.0 mg/kg/injection, schedule: Q01DX009 (sc), vehicle: Klucel (hydroxypropylcellulose) (HPC)) 200 % of control and 225 % of control; (dose: 32.0 mg/kg/injection, schedule: Q01DX009 (sc), vehicle: water) 243 % of control; (dose: 64.0 mg/kg/injection, schedule: Q01DX005 (oral), vehicle: Klucel (hydroxypropylcellulose) (HPC)) 93 % of control; (dose: 64.0 mg/kg/injection, schedule: Q01DX005 (oral), vehicle: water) 103 % of control; (dose: 64.0 mg/kg/injection, schedule: Q01DX009 (ip), vehicle: saline) 108 % of control and 89 % of control. Besides, the T/C (dose: 64.0 mg/kg/injection, schedule: Q01DX009 (oral), vehicle: saline) was 97 % of control; the T/C (dose: 64.0 mg/kg/injection, schedule: Q01DX009 (sc), vehicle: Klucel (hydroxypropylcellulose) (HPC)) is 92 % of control; the T/C (dose: 128.0 mg/kg/injection, schedule: Q01DX005 (oral), vehicle: Klucel (hydroxypropylcellulose) (HPC)) is 97 % of control; the T/C (dose: 128.0 mg/kg/injection, schedule: Q01DX005 (oral), vehicle: water) is 99 % of control; the T/C (dose: 128.0 mg/kg/injection, schedule: Q01DX009 (ip), vehicle: Klucel (hydroxypropylcellulose) (HPC)) is 122 % of control; the T/C (dose: 128.0 mg/kg/injection, schedule: Q01DX009 (ip), vehicle: saline) is 101 % of control. Moreover, the T/C (dose: 128.0 mg/kg/injection, schedule: Q01DX009 (ip), vehicle: water) was 114 % of control; the T/C (dose: 128.0 mg/kg/injection, schedule: Q01DX009 (oral), vehicle: saline) was 102 % of control; the T/C (dose: 128.0 mg/kg/injection, schedule: Q01DX009 (sc), vehicle: Klucel (hydroxypropylcellulose) (HPC)) was 211 % of control; the T/C (dose: 256.0 mg/kg/injection, schedule: Q01DX005 (oral), vehicle: Klucel (hydroxypropylcellulose) (HPC)) is 98 % of control; the T/C (dose: 256.0 mg/kg/injection, schedule: Q01DX009 (oral), vehicle: saline) was 101 % of control; the T/C (dose: 512.0 mg/kg/injection, schedule: Q01DX009 (oral), vehicle: saline) was 93 % of control.
As for `Nc1cc(=O)[nH][nH]1`, the T/C is, setting by setting: (dose: 108.0 mg/kg/injection, schedule: Q01DX Z (sc), vehicle: saline) 105 % of control; (dose: 180.0 mg/kg/injection, schedule: Q01DX Z (sc), vehicle: saline) 100 % of control; (dose: 300.0 mg/kg/injection, schedule: Q01DX Z (sc), vehicle: saline) 100 % of control; (dose: 500.0 mg/kg/injection, schedule: Q01DX Z (sc), vehicle: saline) 100 % of control; (dose: 833.0 mg/kg/injection, schedule: Q01DX Z (sc), vehicle: saline) 100 % of control.
`Nc1ccc(C(=O)O)cn1`: the T/C (dose: 14.0 mg/kg/injection, schedule: Q01DX Z (sc), vehicle: other) is 100 % of control; the T/C (dose: 23.0 mg/kg/injection, schedule: Q01DX Z (sc), vehicle: other) was 100 % of control; the T/C (dose: 37.0 mg/kg/injection, schedule: Q01DX Z (sc), vehicle: other) is 100 % of control; the T/C (dose: 65.0 mg/kg/injection, schedule: Q01DX Z (sc), vehicle: other) is 111 % of control; the T/C (dose: 108.0 mg/kg/injection, schedule: Q01DX Z (sc), vehicle: other) is 100 % of control; the T/C (dose: 180.0 mg/kg/injection, schedule: Q01DX Z (sc), vehicle: other) was 111 % of control.
Consider `Nc1ncnc2c1ccn2C1OC(CO)C(O)C1O` (stereo not given), for which the T/C by setting is: (dose: 0.25 mg/kg/injection, schedule: Q01DX009 (ip), vehicle: Klucel (hydroxypropylcellulose) (HPC)) 102 % of control; (dose: 0.5 mg/kg/injection, schedule: Q01DX009 (ip), vehicle: Klucel (hydroxypropylcellulose) (HPC)) 97 % of control; (dose: 1.0 mg/kg/injection, schedule: Q01DX009 (ip), vehicle: Klucel (hydroxypropylcellulose) (HPC)) 92 % of control; (dose: 2.0 mg/kg/injection, schedule: Q01DX009 (ip), vehicle: Klucel (hydroxypropylcellulose) (HPC)) 95 % of control; under setting [1], 97 % of control; under setting [2], 102 % of control. In addition, under setting [3], the T/C was 101 % of control.
As for `CCN=c1cc2oc3cc(NCC)c(C)cc3c(-c3ccccc3C(=O)OCC)c-2cc1C`, the T/C reads like this: (dose: 0.63 mg/kg/injection, schedule: Q01DX009 (ip), vehicle: water) 102 % of control; (dose: 0.63 mg/kg/injection, schedule: Q01DX009 (sc), vehicle: water) 100 % of control; (dose: 1.25 mg/kg/injection, schedule: Q01DX009 (ip), vehicle: water) 96 % of control; (dose: 1.25 mg/kg/injection, schedule: Q01DX009 (sc), vehicle: water) 104 % of control and 97 % of control; (dose: 2.5 mg/kg/injection, schedule: Q01DX009 (sc), vehicle: water) 105 % of control; (dose: 5.0 mg/kg/injection, schedule: Q01DX009 (sc), vehicle: water) 104 % of control.
Consider `ONc1nc(NO)c2[nH]cnc2n1`, for which the T/C by setting is: (dose: 8.0 mg/kg/injection, schedule: Q01DX Z (sc), vehicle: steriod suspending solution) 100 % of control; (dose: 32.0 mg/kg/injection, schedule: Q01DX Z (sc), vehicle: steriod suspending solution) 175 % of control; (dose: 64.0 mg/kg/injection, schedule: Q01DX Z (sc), vehicle: steriod suspending solution) 200 % of control.
